Read-outs that look alike come from different tables or passages of the source. Marks after values point to notes of the source that are not given here.
What was measured:
full-length FXR = target: T1, full-length FXR (Homo sapiens, UniProt Q96RI1); experiment: Cell-based FXR transactivation, EcRE luciferase reporter in COS-7 cells; conditions: Table 2; for Cell-based FXR transactivation Fold changes by 5 μM compound: positive: induction, minus: repression; for EC50: EcRE luciferase reporter
T1 construct: The cells were co-transfected with plasmids encoding full-length FXR and the cognate luciferase reporter EcRE-Luc; expressed in transfected cells; host or cells: COS-7
T1 sequence (Q96RI1 1-486): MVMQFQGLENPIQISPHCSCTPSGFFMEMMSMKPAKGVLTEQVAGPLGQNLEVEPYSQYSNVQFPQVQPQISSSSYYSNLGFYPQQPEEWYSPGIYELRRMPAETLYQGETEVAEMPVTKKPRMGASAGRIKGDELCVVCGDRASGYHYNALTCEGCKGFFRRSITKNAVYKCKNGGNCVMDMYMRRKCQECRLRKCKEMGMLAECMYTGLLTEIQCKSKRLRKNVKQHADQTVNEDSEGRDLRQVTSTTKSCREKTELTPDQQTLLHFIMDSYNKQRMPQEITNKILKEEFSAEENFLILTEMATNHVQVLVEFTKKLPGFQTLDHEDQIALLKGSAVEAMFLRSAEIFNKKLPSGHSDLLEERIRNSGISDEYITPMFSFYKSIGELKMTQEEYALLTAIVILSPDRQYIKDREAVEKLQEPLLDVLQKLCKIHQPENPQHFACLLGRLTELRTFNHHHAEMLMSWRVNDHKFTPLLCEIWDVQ
Description: COS-7 cells were cotransfected with plasmids encoding full length FXR.
For transient transfection assay, COS-7 cells were maintained in DMEM containing 10% fetal bovine serum and were transiently transfected using Lipofectamine 2000 (Invitrogen). Before 24 h of transfection, 24-well plates were plated. The cells were co-transfected with plasmids encoding full-length FXR and the cognate luciferase reporter EcRE-Luc. Ligands were added 5 hours after transfection. Cells were harvested 24 hours later for the luciferase assays according to the manufacturer's instructions (Dual-Luciferase® Reporter Assay System, Promega). Luciferase activities were normalized to renilla activity co-transfected as an internal control.

db/db mice [1] = experiment: Serum/blood metabolic parameters in high-fat diet fed db/db mice; type: in vivo, mouse; conditions: 10 mg/kg, treat for 10 days, vehicle 527 ± 63
Text: KK-Ay mice (KK/Upj-Ay/J) are animal models with moderate obese and diabetes with insulin resistance. KK-Ay mice develop hyperglycemia, hyperinsulinemia, glucose intolerance and obesity as well as fat accumulation in liver by eight weeks of age. Pancreatic islets are hypertrophied and the β-cells are degranulated. db/db mice (BKS.Cg-Dockr+/+ Lepr^db/Jnju) are animal models of type II diabetes. They have the phenotype of insulin resistance. These model mice were used to detect the functions of our compounds on metabolic diseases.
8-10 weeks age mice were maintained as example 4, and fed with high-fat diet (Research Diets, D12492). Mice were i.p. injected with compounds once daily for 7, 10, 11 or 14 days as indicated in each table. After the last compounds injection, mice were fasted for 6 hours with free access to water, and then sacrificed. Part of each liver was fixed in 4% paraformaldehyde for H&E staining, and other liver tissues were stored in liquid nitrogen for enzyme activity measurement and gene expression analysis by RT-PCR. The serums were collected to measure metabolic parameters, including serum glucose, insulin, cholesterol, free fatty acid (FFA) and triglyceride levels. Serum glucose was analyzed using glucose oxidase method (Applygen, Beijing, China). The blood glucose in Table 11 was measured with Berenger blood glucose test strips (B/BRAUN, German) from blood by cutting mice tail after the 6th injection and following fast for 16 hours. Serum cholesterol and FFA were analyzed using Cholesterol Assay Kit and FFA Assay Kit (Bioassay Systems, USA; Nanjing Jiancheng Bioengineering Institute, China; FFA ELISA, R&D, USA), respectively. Serum triglyceride was analyzed using Triglyceride Assay Kit (Bioassay Systems, USA; WAKO Chemicals Inc., Japan; Applygen, Beijing, China). Liver triglyceride was analyzed using Tissue triglyceride assay kit (Applygen, Beijing, China). Serum insulin levels were measured by the Ultra Sensitive Mouse Insulin ELISA Kit (Crystal Chem. Inc., USA). RNA was isolated using Tissue RNA kit (Omega Bio-Tek, GA). The first strand cDNA were obtained by TAKARA reverse transcription kit. Real-time quantitative PCR were performed on a CFX96™ Real-Time PCR Detection System (Bio-Rad) using SYBR Premix Ex Taq™ (TAKARA). Relative mRNA expression levels were normalized to actin levels. […]

[2] = target: T2, FXR ligand binding domain (LBD) (Homo sapiens, UniProt Q96RI1); experiment: AlphaScreen assay: FXR LBD recruitment of coregulator peptide motifs (SRC2-3, SRC1-2); type: biochemical; conditions: Table 2
T2 construct: made in house
T2 sequence (Q96RI1 262-486 limits assumed): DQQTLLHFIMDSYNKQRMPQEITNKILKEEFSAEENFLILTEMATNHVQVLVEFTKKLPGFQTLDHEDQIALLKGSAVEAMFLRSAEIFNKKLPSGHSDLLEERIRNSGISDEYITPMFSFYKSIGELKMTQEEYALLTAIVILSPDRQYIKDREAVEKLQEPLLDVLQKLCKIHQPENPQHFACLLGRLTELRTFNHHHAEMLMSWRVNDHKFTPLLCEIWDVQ
Description: In search of novel ligands for FXR, we used FXR ligand binding domain (LBD) as a bait to screen chemical libraries based on AlphaScreen biochemical assay, which determines the efficacy of small molecules in influencing binding affinity of FXR with coregulator peptides (see e.g., Jin et al., (2013) Nature communications 4, 1937).
The binding of the cofactor peptide motifs to FXR ligand binding domain (LBD) in response to ligands was determined by AlphaScreen assays using a hexahistidine detection kit from Perkins-Elmer. The FXR LBD protein was purified as described previously (see e.g., Jin et al., (2013) Nature communications 4, 1937). The experiments were conducted with approximately 20-40 nM receptor LBD and 20 nM biotinylated cofactor peptides in the presence of 5 μg/ml donor and acceptor beads in a buffer containing 50 mM MOPS, 50 mM NaF, 0.05 mM CHAPS, and 0.1 mg/ml bovine serum albumin, all adjusted to a pH of 7.4.

[3] = test system: human hepatoma HepG2 cells; experiment: MTT cell viability assay, HepG2; type: cell-based; conditions: 48 h, read-out: Cell viability as a percentage of the cells treated with DMSO, HepG2
Text: (§1) The MTT assay is a colorimetric assay for assessing cell metabolic activity. It is widely used in high-throughput screening of antitumor drugs due to its high sensitivity and economical features. In this example, MTT was used to detect the inhibitory effects of compounds on various cancer cell lines. Cancer cells including human colorectal adenocarcinoma HCT15 cells, RA-resistant human colon cancer HCT116 cells, human cervical carcinoma Hela cells, human hepatoma HepG2 cells and human breast cancer MCF7 cells were cultured in DMEM medium containing 10% fetal bovine serum. 20 uM or 40 uM of compounds were administered to treat cells, cell viability is detected by MTT assay and expressed as a percentage of the cells treated with DMSO (Table 4).

[4] = test system: human cervical carcinoma Hela cells; experiment: MTT cell viability assay, Hela; type: cell-based; conditions: 48 h, read-out: Cell viability as a percentage of the cells treated with DMSO, Hela
Text: as §1

[5] = test system: RA-resistant human colon cancer HCT116 cells; experiment: MTT cell viability assay, HCT116; type: cell-based; conditions: 48 h, read-out: Cell viability as a percentage of the cells treated with DMSO, HCT116; for viability at 20 µM: HCT-116, 20 uM; for viability at 40 µM: HCT-116, 40 uM
Text: as §1

[6] = test system: human colorectal adenocarcinoma HCT15 cells; experiment: MTT cell viability assay, HCT15; type: cell-based; conditions: 48 h, read-out: Cell viability as a percentage of the cells treated with DMSO, HCT15; for viability at 20 µM: HCT-15, 20 uM; for viability at 40 µM: HCT-15, 40 uM
Text: as §1

[7] = test system: human breast cancer MCF7 cells; experiment: MTT cell viability assay, MCF-7; type: cell-based; conditions: 48 h, read-out: Cell viability as a percentage of the cells treated with DMSO, MCF-7
Text: as §1

[8] = test system: inflammatory cytokines in tissues of db/db mice; experiment: Inflammatory cytokine mRNA levels in tissues of high-fat diet fed db/db mice (RT-PCR); type: in vivo, mouse; conditions: 5 mg/kg
Text: In this example, we detected the levels of various inflammatory cytokines including iNOS, IFNγ, TGFβ, TNFα, COX2, IL-1β, IL-6, SAA1, MIP-1α and CD36 in liver, kidney, white adipose tissue (WAT) in various mice models, including wild type mice treated with APAP in example 4, high-fat diet fed diabetic and obesity db/db and KK-Ay mice in example 5, high-fat diet fed wild-type mice in Example 5, as well as in primary hepatocytes with LPS induced inflammation, using RT-PCR.

db/db mice [9] = experiment: Hepatic triglyceride, liver histology, serum ALT and ALP in high-fat diet fed db/db mice; type: in vivo, mouse; conditions: 10 mg/kg for 10 days
Description: Liver tissues fixed in 4% paraformaldehyde in example 5 were performed for H&E staining by standard procedures. Liver tissues fixed in 4% paraformaldehyde were embedded in optimum cutting temperature compound (OCT), and cryosectioned. Frozen liver sections were stained with 0.3% oil red O according to standard procedures.
The triglyceride levels in liver tissues from mice treated with compounds were analyzed using Tissue triglyceride assay kit (Applygen, Beijing, China).
Alkaline Phosphatase (ALP) is a marker of cholestasis. Cholestasis can be suspected when there is an elevation of ALP enzymes. In fact, greater than 90% of patients with bile stasis will have an elevated alkaline phosphatase. […] The aminotransferase is used to evaluate the presence of hepatitis and may be elevated in cholestasis or with common bile duct obstruction. In this example, 8-10 week age db/db mice were fed with high-fat diet and treated with 10 mg/kg of compounds once daily for 10 days as in Example 5. The activities of serum ALP and ALT were analyzed using ALP kit and ALT kit, respectively (Nanjing Jiancheng Engineering Institute, China).

[10] = SRC1-2 peptide, read-out: EC50 (μM) of FXR binding by AlphaScreen assay recruit SRC1-2
[11] = SRC2-3 peptide, read-out: EC50 (μM) of FXR binding by AlphaScreen assay recruit SRC2-3

SMILES	Cell-based FXR transactivation Fold changes by 5 μM compound (full-length FXR)	EC50 (full-length FXR) [nM]	Serum Glucose (mg/dl) (db/db mice [1])	EC50 [2, 10] [µM]	EC50 [2, 11] [µM]	viability at 20 µM [3] [%]	viability at 40 µM [3] [%]	viability at 20 µM [4] [%]	viability at 40 µM [4] [%]	viability at 20 µM [5] [%]	viability at 40 µM [5] [%]	viability at 20 µM [6] [%]	viability at 40 µM [6] [%]	viability at 20 µM [7] [%]	viability at 40 µM [7] [%]	mRNA level of iNOS (fold), Liver tissue ([8]; vehicle 1.06 ± 0.14)	mRNA level of iNOS (fold), Colon tissue ([8]; vehicle 1.12 ± 0.23)	Hepatic triglyceride (mM/g) (db/db mice [9]; vehicle 148 ± 14)	Serum ALT (U/L) (db/db mice [9]; vehicle 377 ± 48, Table 15)
O=C(OC1CCCCCCC1)c1ccc([N+](=O)[O-])cc1 [XD-24, cyclooctyl 4-nitrobenzoate]	1.2	< 1000	307 ± 39^a mg/dl	–	–	–	–	–	–	–	–	–	–	–	–	–	–	–	–
Cc1cc(C(=O)OC2CCC3CCCCC3C2)ccc1N (centres unmarked) [XD-31, decahydro-naphthalen-2-yl 4-amino-3-methylbenzoate]	−5	< 1000	326 ± 51^a mg/dl	< 1	< 1	100 ± 1	90 ± 1	74	42 ± 1	63 ± 1	59 ± 1	100 ± 1	41 ± 1	100 ± 1	100 ± 1	–	–	–	–
O=C(OC1CCC2CCCCC2C1)c1ccc(F)cc1 (centres unmarked) [XD-33, decahydro-naphthalen-2-yl 4-fluorobenzoate]	2	1000 to 10000	400 ± 23^a mg/dl	< 1	< 1	100 ± 2	95 ± 2	97 ± 2	98 ± 2	97 ± 2	95 ± 2	100 ± 2	100 ± 2	100 ± 2	95 ± 2	–	–	–	–
Cc1cc(C(=O)OC2CC3CCC2(C)C3(C)C)ccc1[N+](=O)[O-] (centres unmarked) [XD-15, 1,7,7-trimethyl-bicyclo[2.2.1]-heptan-2-yl 3-methyl-4-nitro-benzoate]	3	1000 to 10000	–	–	–	79	72 ± 3	89 ± 6	70 ± 3	59 ± 3	40 ± 3	100 ± 2	62 ± 3	81 ± 4	70	0.47 ± 0.21^a fold	0.41 ± 0.16^a fold	–	–
O=C(OC1CC2CCC1C2)c1ccc([N+](=O)[O-])cc1 (centres unmarked) [XD-25, bicyclo[2.2.1]-heptan-2-yl 4-nitrobenzoate]	1.5	< 1000	389 ± 47^a mg/dl	–	–	100 ± 5	90 ± 4	100 ± 2	100 ± 2	79 ± 2	66 ± 5	100 ± 4	89 ± 4	100 ± 2	97 ± 2	–	–	116 ± 5 ^c mM/g	124 ± 21 ^a U/L
